Experimental data as given in the supplement of paper PMC10307832.

Legend:
Test in all cases: relative viability (nuclei count vs DMSO), 5 days (fraction); higher = more cells survive
Pemetrexed + OSI-027 = compound: Nc1nc2[nH]cc(CCc3ccc(C(=O)N[C@@H](CCC(=O)O)C(=O)O)cc3)c2c(=O)[nH]1 [Pemetrexed] + COc1cccc2cc(-c3nc([C@H]4CC[C@H](C(=O)O)CC4)n4ncnc(N)c34)[nH]c12 [OSI-027] (partner 0.5 µM)
Summary of the method: (§1)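 One day after seeding in 1536-well plates, lung cancer cell lines were dosed by pin tool. Dosing was either single-drug or a fixed anchor-drug dose plus five library-drug doses (not always all listed) in √10 steps. After 5 days, nuclei were stained in one fix-and-stain step and counted on 4× images, and relative viability is the nuclei count of treated wells over that of vehicle wells, given as the median of duplicate plates.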

Pemetrexed + Olaparib = compound: Nc1nc2[nH]cc(CCc3ccc(C(=O)N[C@@H](CCC(=O)O)C(=O)O)cc3)c2c(=O)[nH]1 [Pemetrexed] + O=C(c1cc(Cc2n[nH]c(=O)c3ccccc23)ccc1F)N1CCN(C(=O)C2CC2)CC1 [Olaparib] (partner 8 µM)
Summary of the method: as §1

Pemetrexed + Trametinib = compound: Nc1nc2[nH]cc(CCc3ccc(C(=O)N[C@@H](CCC(=O)O)C(=O)O)cc3)c2c(=O)[nH]1 [Pemetrexed] + CC(=O)Nc1cccc(-n2c(=O)n(C3CC3)c(=O)c3c(Nc4ccc(I)cc4F)n(C)c(=O)c(C)c32)c1 [Trametinib] (partner 0.02 µM)
Summary of the method: as §1

Pemetrexed + Crizotinib = compound: Nc1nc2[nH]cc(CCc3ccc(C(=O)N[C@@H](CCC(=O)O)C(=O)O)cc3)c2c(=O)[nH]1 [Pemetrexed] + C[C@@H](Oc1cc(-c2cnn(C3CCNCC3)c2)cnc1N)c1c(Cl)ccc(F)c1Cl [Crizotinib] (partner 1 µM)
Summary of the method: as §1

Cell Line | relative viability (Pemetrexed + OSI-027; first compound 0.002 µM) | relative viability (Pemetrexed + OSI-027; first compound 0.006325 µM) | relative viability (Pemetrexed + OSI-027; first compound 0.02 µM) | relative viability (Pemetrexed + OSI-027; first compound 0.06325 µM) | relative viability (Pemetrexed + OSI-027; first compound 0.2 µM) | relative viability (Pemetrexed + Olaparib; first compound 0.002 µM) | relative viability (Pemetrexed + Olaparib; first compound 0.006325 µM) | relative viability (Pemetrexed + Olaparib; first compound 0.02 µM) | relative viability (Pemetrexed + Olaparib; first compound 0.06325 µM) | relative viability (Pemetrexed + Olaparib; first compound 0.2 µM) | relative viability (Pemetrexed + Trametinib; first compound 0.002 µM) | relative viability (Pemetrexed + Trametinib; first compound 0.006325 µM) | relative viability (Pemetrexed + Trametinib; first compound 0.02 µM) | relative viability (Pemetrexed + Trametinib; first compound 0.06325 µM) | relative viability (Pemetrexed + Trametinib; first compound 0.2 µM) | relative viability (Pemetrexed + Crizotinib; first compound 0.002 µM) | relative viability (Pemetrexed + Crizotinib; first compound 0.006325 µM) | relative viability (Pemetrexed + Crizotinib; first compound 0.02 µM) | relative viability (Pemetrexed + Crizotinib; first compound 0.06325 µM) | relative viability (Pemetrexed + Crizotinib; first compound 0.2 µM)
SW 900 | 0.633 | 0.608 | 0.689 | 0.591 | 0.464 | 0.871 | 0.797 | 1.07 | 0.621 | 0.494 | 0.841 | 0.793 | 0.928 | 0.67 | 0.549 | – | – | – | – | –
PC-3 [JPC-3] | 0.59 | 0.786 | 0.715 | 0.916 | 0.765 | 1.03 | 1.18 | 1.19 | 1.14 | 1.08 | 0.748 | 0.666 | 0.683 | 0.657 | 0.725 | 0.935 | 0.985 | 0.926 | 1.11 | 0.935
NCI-H1703 | – | – | – | – | – | 0.485 | 0.379 | 0.671 | 0.381 | 0.385 | – | – | – | – | – | 0.687 | 0.566 | 0.763 | 0.628 | 0.739
EPLC-272H | 0.268 | 0.257 | 0.343 | 0.302 | 0.265 | 0.592 | 0.835 | 1.01 | 0.564 | 0.271 | 0.33 | 0.27 | 0.385 | 0.305 | 0.227 | 0.781 | 0.913 | 1.07 | 0.981 | 0.853
NCI-H1792 | 0.735 | 0.808 | 0.778 | 0.715 | 0.744 | 0.44 | 0.405 | 0.397 | 0.497 | 0.46 | 0.374 | 0.406 | 0.533 | 0.393 | 0.41 | 0.993 | 0.972 | 0.987 | 0.974 | 0.937
NCI-H2085 | 0.653 | 0.73 | 0.769 | 0.85 | 0.848 | 0.755 | 0.74 | 0.802 | 0.806 | 0.789 | 0.605 | 0.47 | 0.553 | 0.583 | 0.576 | 0.96 | 0.869 | 0.752 | 0.896 | 0.924
LK-2 | 0.233 | 0.205 | 0.228 | 0.153 | 0.2 | 0.761 | 0.817 | 0.745 | 0.519 | 0.622 | 0.649 | 0.568 | 0.697 | 0.737 | 0.659 | – | 0.252 | 0.221 | 0.249 | 0.247
NCI-H1395 | 0.6 | 0.641 | 0.727 | 0.675 | 0.694 | 0.427 | 0.421 | 0.5 | 0.41 | 0.426 | 0.932 | 1 | 1.13 | 0.954 | 1.03 | – | – | – | – | –
ABC-1 | 0.515 | 0.359 | 0.736 | 0.529 | 0.512 | 0.839 | 0.867 | 0.985 | 0.875 | 0.865 | – | – | – | – | – | 0.997 | 1.2 | 1.18 | 1 | 1.05
RERF-LC-KJ | 0.528 | 0.508 | 0.666 | 0.546 | 0.451 | 0.956 | 0.843 | 0.973 | 0.865 | 0.612 | 0.842 | 0.856 | 0.909 | 0.736 | 0.639 | 0.89 | 0.852 | 0.878 | 0.832 | 0.805
LU99A | 0.334 | 0.267 | 0.326 | 0.292 | 0.313 | 0.246 | 0.245 | 0.302 | 0.28 | 0.244 | 0.496 | 0.451 | 0.572 | 0.467 | 0.538 | 0.543 | 0.621 | 0.62 | 0.594 | 0.325
NCI-H650 | 0.536 | 0.562 | 0.551 | 0.507 | 0.532 | 0.382 | 0.403 | – | 0.302 | 0.378 | 0.894 | 0.887 | – | 1.03 | 1.02 | 0.698 | 0.725 | 0.66 | 0.762 | 0.696
NCI-H2347 | 0.296 | 0.292 | 0.49 | 0.406 | 0.339 | 0.55 | 0.527 | 0.678 | 0.517 | 0.499 | 0.282 | 0.376 | 0.246 | 0.287 | 0.28 | 0.689 | 0.616 | 0.694 | 0.577 | 0.477
HARA | 0.407 | 0.533 | 0.53 | 0.487 | 0.186 | 0.758 | 0.859 | 0.834 | 0.606 | 0.182 | 0.592 | 0.395 | 0.797 | 0.41 | 0.17 | 1.27 | 1.02 | 1.03 | 0.98 | 0.216
NCI-H2228 | 0.506 | – | 0.566 | 0.565 | 0.218 | 0.657 | 0.478 | 0.695 | 0.329 | 0.273 | 0.509 | 0.611 | 0.597 | 0.318 | 0.285 | 0.424 | 0.514 | 0.409 | 0.358 | 0.31
EKVX | 0.673 | 0.678 | 0.693 | 0.706 | 0.611 | 0.794 | 0.796 | 0.884 | 0.883 | 0.499 | 0.337 | 0.327 | 0.37 | 0.297 | 0.218 | 0.816 | 0.841 | 0.907 | 0.856 | 0.508
HCC-827 | 0.663 | 0.756 | 0.899 | 0.764 | 0.591 | 0.666 | 0.614 | 0.618 | 0.633 | 0.416 | 0.453 | 0.544 | 0.6 | 0.472 | 0.404 | 0.856 | 1.03 | 0.944 | 0.888 | 0.779
